Measured values taken from US20020137929A1, “1 - (3-heterocyclylphenyl) isothiourea, -isourea, -guanidine and -amidine herbicidal agents” (Intellectual Property Department, BASF Aktiengesellschaft, priority 1998, published 2002).

Legend:
[1] = tested on: CHEAL (Lambsquarters, Common); experiment: Preemergence herbicidal evaluation; type: in vivo, Chenopodium album; conditions: rated 4-5 weeks after treatment
Summary of the method: (§1)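 Herbicidal effect scored visually, 0-9, at 4 to 5 weeks against a control; compound applied preemergence by aqueous acetone spray to seeded soil at about 0.0156 to 0.500 kg/ha.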

ZEAMX (Corn, Field) = experiment: Preemergence herbicidal evaluation; type: in vivo, Zea mays; conditions: rated 4-5 weeks after treatment
Summary of the method: as §1

[2] = tested on: GLXMAW (Soybean, Williams); experiment: Postemergence herbicidal evaluation; type: in vivo, Glycine max, (L.) Merr. cv Williams; conditions: postemergence
Summary of the method: (§2)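 ~2-wk seedlings; postemergence spray, 40 psi; vehicle 1:1 acetone:water + 0.5% Tween 20; rate ≈0.0156–0.500 kg/ha; greenhouse hold; scored 4–5 wk after treatment, 0–9 scale vs control; repeat tests averaged.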

[3] = tested on: TRZAWR (Wheat, Winter, cv Riband); experiment: Postemergence herbicidal evaluation; type: in vivo, Triticum aestivum; conditions: postemergence
Summary of the method: as §2

[4] = tested on: IPOHE (Morningglory, Ivyleaf); experiment: Preemergence herbicidal evaluation; type: in vivo, Ipomoea hederacea; conditions: rated 4-5 weeks after treatment
Summary of the method: as §1

SETVI (Foxtail, Green) = experiment: Postemergence herbicidal evaluation; type: in vivo, Setaria viridis; conditions: postemergence
Summary of the method: as §2

ECHCG (Barnyardgrass) [5] = experiment: Preemergence herbicidal evaluation; type: in vivo, Echinochloa crus-galli; conditions: rated 4-5 weeks after treatment
Summary of the method: as §1

GALAP (Galium) = experiment: Preemergence herbicidal evaluation; type: in vivo, Galium aparine; conditions: rated 4-5 weeks after treatment
Summary of the method: as §1

ECHCG (Barnyardgrass) [6] = experiment: Postemergence herbicidal evaluation; type: in vivo, Echinochloa crus-galli; conditions: postemergence
Summary of the method: as §2

ABUTH (Velvetleaf) = experiment: Postemergence herbicidal evaluation; type: in vivo, Abutilon theophrasti; conditions: postemergence
Summary of the method: as §2

CASOB (Sicklepod) = experiment: Preemergence herbicidal evaluation; type: in vivo, Cassia obtusifolia; conditions: rated 4-5 weeks after treatment
Summary of the method: as §1

AMBEL (Ragweed, Common) = experiment: Postemergence herbicidal evaluation; type: in vivo, Ambrosia artemisifolia; conditions: postemergence
Summary of the method: as §2

[7] = tested on: IPOHE (Morningglory, Ivyleaf); experiment: Postemergence herbicidal evaluation; type: in vivo, Ipomoea hederacea; conditions: postemergence
Summary of the method: as §2

[8] = rate 0.1250 kg/ha, rating scale 0-9
[9] = rate 0.2500 kg/ha, rating scale 0-9

COC(=O)CSCCN1C(=O)CSC1=Nc1cc(-n2c(=O)cc(C(F)(F)F)n(C)c2=O)c(F)cc1Cl [Compound 158, Methyl {{2-{2-{{2-chloro-5-[3,6-dihydro-3-methyl-2,6-dioxo-4-(trifluoromethyl)-1(2H)-pyrimidinyl]-4-fluorophenyl}imino}-4-oxo-3-thiazolidinyl}ethyl}-thio}acetate]
9.0: Preemergence herbicidal rating CHEAL ([1]; 0.0156 kg/ha) | Preemergence herbicidal rating CHEAL ([1]; 0.0313 kg/ha) | Preemergence herbicidal rating CHEAL ([1]; 0.0625 kg/ha) | Preemergence herbicidal rating CHEAL [1, 8] | Preemergence herbicidal rating CHEAL [1, 9] | Preemergence herbicidal rating ZEAMX (ZEAMX (Corn, Field); [8]) | Preemergence herbicidal rating ZEAMX (ZEAMX (Corn, Field); [9]) | Preemergence herbicidal rating IPOHE [4, 8] | Preemergence herbicidal rating IPOHE [4, 9] | herbicidal rating SETVI (SETVI (Foxtail, Green); rate 0.0625 kg/ha) | Preemergence herbicidal rating ECHCG (ECHCG (Barnyardgrass) [5]; 0.0625 kg/ha) | Preemergence herbicidal rating ECHCG (ECHCG (Barnyardgrass) [5]; [8]) | Preemergence herbicidal rating ECHCG (ECHCG (Barnyardgrass) [5]; [9]) | herbicidal rating ABUTH (ABUTH (Velvetleaf); rate 0.0156 kg/ha) | herbicidal rating ABUTH (ABUTH (Velvetleaf); rate 0.0313 kg/ha) | herbicidal rating ABUTH (ABUTH (Velvetleaf); rate 0.0625 kg/ha) | Preemergence herbicidal rating CASOB (CASOB (Sicklepod); [8]) | herbicidal rating AMBEL (AMBEL (Ragweed, Common); rate 0.0625 kg/ha) | herbicidal rating IPOHE ([7]; rate 0.0156 kg/ha) | herbicidal rating IPOHE ([7]; rate 0.0313 kg/ha) | herbicidal rating IPOHE ([7]; rate 0.0625 kg/ha)
5.0: Preemergence herbicidal rating ZEAMX (ZEAMX (Corn, Field); 0.0156 kg/ha) | herbicidal rating GLXMAW ([2]; rate 0.0156 kg/ha) | herbicidal rating GLXMAW ([2]; rate 0.0313 kg/ha) | Preemergence herbicidal rating GALAP (GALAP (Galium); 0.0625 kg/ha) | Preemergence herbicidal rating CASOB (CASOB (Sicklepod); [9])
1.0: Preemergence herbicidal rating IPOHE ([4]; 0.0156 kg/ha) | Preemergence herbicidal rating CASOB (CASOB (Sicklepod); 0.0156 kg/ha)
2.0: herbicidal rating SETVI (SETVI (Foxtail, Green); rate 0.0156 kg/ha) | Preemergence herbicidal rating ECHCG (ECHCG (Barnyardgrass) [5]; 0.0156 kg/ha) | herbicidal rating ECHCG (ECHCG (Barnyardgrass) [6]; rate 0.0156 kg/ha) | herbicidal rating ECHCG (ECHCG (Barnyardgrass) [6]; rate 0.0313 kg/ha)
3.5: herbicidal rating TRZAWR ([3]; rate 0.0156 kg/ha) | herbicidal rating TRZAWR ([3]; rate 0.0625 kg/ha)
8.0: Preemergence herbicidal rating ZEAMX (ZEAMX (Corn, Field); 0.0625 kg/ha)
3.0: herbicidal rating SETVI (SETVI (Foxtail, Green); rate 0.0313 kg/ha) | herbicidal rating ECHCG (ECHCG (Barnyardgrass) [6]; rate 0.0625 kg/ha) | Preemergence herbicidal rating CASOB (CASOB (Sicklepod); 0.0313 kg/ha)
7.0: Preemergence herbicidal rating ZEAMX (ZEAMX (Corn, Field); 0.0313 kg/ha) | herbicidal rating GLXMAW ([2]; rate 0.0625 kg/ha) | Preemergence herbicidal rating IPOHE ([4]; 0.0625 kg/ha) | Preemergence herbicidal rating ECHCG (ECHCG (Barnyardgrass) [5]; 0.0313 kg/ha) | Preemergence herbicidal rating GALAP (GALAP (Galium); [8]) | herbicidal rating AMBEL (AMBEL (Ragweed, Common); rate 0.0313 kg/ha)
0.0: Preemergence herbicidal rating GALAP (GALAP (Galium); 0.0156 kg/ha) | Preemergence herbicidal rating GALAP (GALAP (Galium); 0.0313 kg/ha)
4.0: herbicidal rating TRZAWR ([3]; rate 0.0313 kg/ha) | Preemergence herbicidal rating IPOHE ([4]; 0.0313 kg/ha) | Preemergence herbicidal rating CASOB (CASOB (Sicklepod); 0.0625 kg/ha)
6.0: Preemergence herbicidal rating GALAP (GALAP (Galium); [9]) | herbicidal rating AMBEL (AMBEL (Ragweed, Common); rate 0.0156 kg/ha)

C=CCN1C(=O)C(CC(=O)NO)SC1=Nc1cc(-n2c(=O)cc(C(F)(F)F)n(C)c2=O)c(F)cc1Cl (stereo not drawn) [Compound 161, 3-Allyl-2-{{2-chloro-5-[3,6-dihydro-3-methyl-2,6-dioxo-4-(trifluoromethyl)-1(2H)-pyrimidinyl]-4-fluorophenyl}imino}-4-oxo-5-thiazolidineacetohydroxamic acid]
5.0: Preemergence herbicidal rating ZEAMX (ZEAMX (Corn, Field); 0.1250 kg/ha) | herbicidal rating GLXMAW ([2]; rate 0.0156 kg/ha) | herbicidal rating ABUTH (ABUTH (Velvetleaf); rate 0.0313 kg/ha)
3.5: herbicidal rating TRZAWR ([3]; rate 0.0313 kg/ha)
6.0: Preemergence herbicidal rating CHEAL ([1]; 0.0156 kg/ha) | Preemergence herbicidal rating ZEAMX (ZEAMX (Corn, Field); 0.2500 kg/ha)
1.0: Preemergence herbicidal rating ZEAMX (ZEAMX (Corn, Field); 0.0625 kg/ha) | herbicidal rating SETVI (SETVI (Foxtail, Green); rate 0.0313 kg/ha) | Preemergence herbicidal rating CASOB (CASOB (Sicklepod); 0.0625 kg/ha) | herbicidal rating AMBEL (AMBEL (Ragweed, Common); rate 0.0156 kg/ha) | herbicidal rating IPOHE ([7]; rate 0.0156 kg/ha)
8.5: herbicidal rating GLXMAW ([2]; rate 0.1250 kg/ha)
9.0: Preemergence herbicidal rating CHEAL ([1]; 0.0625 kg/ha) | Preemergence herbicidal rating CHEAL ([1]; 0.1250 kg/ha) | Preemergence herbicidal rating CHEAL ([1]; 0.2500 kg/ha) | Preemergence herbicidal rating CHEAL ([1]; 0.5000 kg/ha) | Preemergence herbicidal rating ZEAMX (ZEAMX (Corn, Field); 0.5000 kg/ha) | Preemergence herbicidal rating IPOHE ([4]; 0.1250 kg/ha) | Preemergence herbicidal rating IPOHE ([4]; 0.2500 kg/ha) | Preemergence herbicidal rating IPOHE ([4]; 0.5000 kg/ha) | Preemergence herbicidal rating ECHCG (ECHCG (Barnyardgrass) [5]; 0.5000 kg/ha) | Preemergence herbicidal rating GALAP (GALAP (Galium); 0.5000 kg/ha) | herbicidal rating ABUTH (ABUTH (Velvetleaf); rate 0.1250 kg/ha) | Preemergence herbicidal rating CASOB (CASOB (Sicklepod); 0.1250 kg/ha) | Preemergence herbicidal rating CASOB (CASOB (Sicklepod); 0.2500 kg/ha) | Preemergence herbicidal rating CASOB (CASOB (Sicklepod); 0.5000 kg/ha) | herbicidal rating AMBEL (AMBEL (Ragweed, Common); rate 0.0625 kg/ha) | herbicidal rating AMBEL (AMBEL (Ragweed, Common); rate 0.1250 kg/ha) | herbicidal rating IPOHE ([7]; rate 0.0625 kg/ha) | herbicidal rating IPOHE ([7]; rate 0.1250 kg/ha)
3.0: Preemergence herbicidal rating GALAP (GALAP (Galium); 0.0625 kg/ha) | herbicidal rating IPOHE ([7]; rate 0.0313 kg/ha)
2.5: herbicidal rating TRZAWR ([3]; rate 0.0156 kg/ha)
7.0: Preemergence herbicidal rating CHEAL ([1]; 0.0313 kg/ha) | herbicidal rating GLXMAW ([2]; rate 0.0625 kg/ha) | Preemergence herbicidal rating IPOHE ([4]; 0.0625 kg/ha) | herbicidal rating SETVI (SETVI (Foxtail, Green); rate 0.0625 kg/ha) | herbicidal rating SETVI (SETVI (Foxtail, Green); rate 0.1250 kg/ha) | Preemergence herbicidal rating ECHCG (ECHCG (Barnyardgrass) [5]; 0.2500 kg/ha) | Preemergence herbicidal rating GALAP (GALAP (Galium); 0.1250 kg/ha) | Preemergence herbicidal rating GALAP (GALAP (Galium); 0.2500 kg/ha) | herbicidal rating ABUTH (ABUTH (Velvetleaf); rate 0.0625 kg/ha)
2.0: Preemergence herbicidal rating IPOHE ([4]; 0.0313 kg/ha)
0.0: Preemergence herbicidal rating ZEAMX (ZEAMX (Corn, Field); 0.0156 kg/ha) | Preemergence herbicidal rating ZEAMX (ZEAMX (Corn, Field); 0.0313 kg/ha) | herbicidal rating SETVI (SETVI (Foxtail, Green); rate 0.0156 kg/ha) | Preemergence herbicidal rating ECHCG (ECHCG (Barnyardgrass) [5]; 0.0156 kg/ha) | Preemergence herbicidal rating ECHCG (ECHCG (Barnyardgrass) [5]; 0.0313 kg/ha) | Preemergence herbicidal rating ECHCG (ECHCG (Barnyardgrass) [5]; 0.0625 kg/ha) | Preemergence herbicidal rating GALAP (GALAP (Galium); 0.0156 kg/ha) | Preemergence herbicidal rating GALAP (GALAP (Galium); 0.0313 kg/ha) | herbicidal rating ECHCG (ECHCG (Barnyardgrass) [6]; rate 0.0156 kg/ha) | herbicidal rating ECHCG (ECHCG (Barnyardgrass) [6]; rate 0.0313 kg/ha) | herbicidal rating ABUTH (ABUTH (Velvetleaf); rate 0.0156 kg/ha) | Preemergence herbicidal rating CASOB (CASOB (Sicklepod); 0.0156 kg/ha) | Preemergence herbicidal rating CASOB (CASOB (Sicklepod); 0.0313 kg/ha)
4.0: herbicidal rating TRZAWR ([3]; rate 0.0625 kg/ha) | Preemergence herbicidal rating ECHCG (ECHCG (Barnyardgrass) [5]; 0.1250 kg/ha) | herbicidal rating ECHCG (ECHCG (Barnyardgrass) [6]; rate 0.0625 kg/ha) | herbicidal rating ECHCG (ECHCG (Barnyardgrass) [6]; rate 0.1250 kg/ha) | herbicidal rating AMBEL (AMBEL (Ragweed, Common); rate 0.0313 kg/ha)
6.5: herbicidal rating GLXMAW ([2]; rate 0.0313 kg/ha)
4.5: herbicidal rating TRZAWR ([3]; rate 0.1250 kg/ha)
